According to the COVID Moonshot data (paper PMC11187573), “Identification of SARS-CoV-2 Mpro inhibitors through deep reinforcement learning for de novo drug design and computational chemistry approaches” (RSC Medicinal Chemistry, 2024):
pIC50: −log10 of the molar value.

Assays:
[1] = target: SARS-CoV-2 Main Protease (SARS-CoV-2) (UniProt P0DTD1)
[2] = target: SARS-CoV-2 Main Protease (SARS-CoV-2) (UniProt P0DTD1); remark: listed apart in the source

SMILES	inhibition ([1]; 50.0 µM) [%]	relative solubility at 20 uM	relative solubility at 100 uM	inhibition ([2]; 20.0 µM) [%]	inhibition ([2]; 50.0 µM) [%]	inhibition ([1]; 20.0 µM) [%]	pIC50 [1]
Cc1ccc(O)cc1NC(=O)C(C)(C)c1cccc(F)c1	-0.631	1	0.92	1.12	-11	–	–
Cc1noc(C)c1NC(=O)Cc1cccc(Cl)c1Cl	0	1	1	-2.3	-6.85	–	–
Cc1cccc(NC(=O)C(C#N)C(=O)C2CC2)c1 (stereo not given)	0.517	0.99	0.99	–	5.88	0.422	–
CS(=O)(=O)c1oc(-c2ccc(F)cc2)nc1S(=O)(=O)c1ccc(Cl)cc1	0	0.78	0.45	10.8	11	–	–
C=CC(=O)N(c1ccc(CC)c(I)c1)C(C(=O)NC(C)(C)C)c1cccnc1 (stereo not given)	9.38	0.95	0.93	15.2	20.7	–	–
O=C(CCl)N1CCN(Cc2cc(Cl)cc(Cl)c2)CC1	100	1	1	76.9	69.1	100	6.32
CSc1ccncc1NC(=O)Cc1ccc2c(c1)CCCC2	0	0.99	0.67	-1.16	11.6	–	–
O=C(NCCNc1cccnn1)c1ccccc1NS(=O)(=O)c1cc(F)ccc1F	12.1	1	1	–	7.83	0	–
O=S(=O)(NC1(Cc2ccccc2)CCOCC1)c1cccnc1	11.6	1	1	-34.8	3.06	–	–
CCC(=O)NCC[C@@H]1CCc2ccc3c(c21)CCO3 (stereo in doubt)	–	1	1	0.473	6.69	0	–
C=CC(=O)N(c1ccc(C(C)(C)C)cc1)C(C(=O)NCCc1cccc(F)c1)c1cncc(C)c1 (stereo not given)	0	0.8	0.28	49	78.2	–	–
C=CC(=O)N1CCCC(c2nc3ccccc3s2)C1 (stereo not given)	0	0.99	0.99	–	14.5	0	–
CNC(=O)OC1CCN(Cc2ccccc2)CC1	0	0.99	1	–	17.6	0.824	–
O=S(=O)(Cc1ccc(F)cc1)Nc1cccnc1	-5.13	1	1	6.67	-13.8	–	–
O=C(CCl)N1CCN(Cc2cccc3ccccc23)CC1	100	0.99	0.98	–	98.6	100	6.05
COc1cccc2c1OCC(NC(=O)c1cc(=O)[nH]c3cc(F)ccc13)C2 (stereo not given)	0	0.9	0.86	-1.01	-0.175	–	–
O=C(Cc1ccc2[nH]c(=O)[nH]c2c1)NC1(CNC(=O)c2cnc[nH]2)CC1	76.6	1	1	6.85	3.02	–	4.56
O=C(Nc1cccnc1)Nc1cncc(Cl)c1	-0.075	1	1	–	16.8	0	–
CCc1ccccc1Nc1nc(N)nc(CSc2nnc3ccccn23)n1	3.37	0.99	0.95	20.9	46.6	-0.805	–
Cc1ccncc1NC(=O)Cc1ccc2[nH]ccc2c1	0	1	1	2.86	-2.33	–	–
Cc1ccccc1NC1CCN(c2ccc(S(N)(=O)=O)cc2)CC1	37.6	0.91	0.91	4.98	7.22	25.2	–
CCn1c(=O)n(CC(=O)NCc2cnccn2)c2ccccc21	0	1	1	1.73	6.74	0	–
O=C(Cc1c[nH]c2ncccc12)N(Cc1c(F)cccc1Cl)c1ccc2[nH]c(=O)[nH]c2c1	12.4	0.95	0.88	6.29	-1.08	–	–
CC(=O)N1CCN(Cc2cn(-c3cccc(S(N)(=O)=O)c3)nn2)CC1	5.73	0.95	0.97	-2.75	1.36	2.3	–
Cc1nnc(C2Cc3ccccc3CN2C(=O)CCl)o1 (stereo not given)	18.1	0.99	0.99	16.3	41.9	–	–
C=CC(=O)N(c1ccc(C(F)(F)F)cc1)C(C(=O)Nc1c(C)cccc1CC)c1cccnc1 (stereo not given)	–	0.89	0.79	22.3	38.6	23.9	–

SMILES	inhibition ([1]; 50.0 µM) [%]	relative solubility at 20 uM	relative solubility at 100 uM	inhibition ([2]; 20.0 µM) [%]	inhibition ([2]; 50.0 µM) [%]	inhibition ([1]; 20.0 µM) [%]	pIC50 [1]
Cc1cnc(CC(=O)Nc2cccnc2)o1	0	0.99	1	–	-9.91	0	–
N#CCN1CCN(Cc2cc(Cl)cc3ccccc23)CC1	10.2	0.91	0.92	–	5.55	10.4	–
CO[C@H](C)C(=O)Nc1cnccc1C (stereo in doubt)	6.56	1.01	1	4.95	8.97	–	–
C=CC(=O)N(c1ccc(C(C)C)nc1)C(C(=O)NC(C)(C)C)c1cccnc1 (stereo not given)	–	1	0.99	11.7	11.4	0	–
CCO[C@@H]1C[C@H]1C(=O)Nc1cnccc1C (stereo in doubt)	0	1	1	-4.13	-3.45	–	–
COc1ccncc1NC(=O)C(C)(C)c1cc(F)cc(C#N)c1	40.6	0.99	1	20	30.8	–	–
Cc1ncc2c(n1)CCC(NC(=O)NCc1cccc(N3C(=O)NC4(CCCC4)C3=O)c1)C2 (stereo not given)	0	0.99	0.97	-7.81	-6.65	–	–
Cc1ncncc1NC(=O)Nc1ccccc1	20.1	0.99	0.99	-2.06	-0.628	6.04	–
O=C(Nc1nc2ccc(F)cn2n1)C1CCOc2ccc(Cl)cc21 (stereo not given)	0	1	0.99	-28.5	7.58	–	–
CC1CC(C)CN(C(=O)c2ccccc2NC(=O)NCc2ccoc2)C1 (stereo not given)	0	1	0.99	–	8.34	0	–
CCC(NC(=O)NCc1cnccn1)c1ccccc1OCC(=O)N1CCCC1 (stereo not given)	9.2	1	1	–	7.61	0	–
Cc1c(C(=O)NC(CC(=O)O)c2cccc(Cl)c2)cnc2ccccc12 (stereo not given)	8.52	1	1	-13	6.12	–	–
Cc1ccncc1-c1ccc(S(N)(=O)=O)cc1	-2.15	1	1	–	8.58	-2.96	–
O=C(CC(=O)N1CCOCC1)Nc1ccccc1	0	1	1.01	–	-26.9	0	–
N#Cc1ccc(CNC(=O)Cc2c[nH]c3ncccc23)cc1	–	1	0.99	2.44	1.71	1.12	–
O=C(Cc1cc(Cl)cc(Cl)c1)Nc1nncs1	0	0.84	0.7	13.9	-0.821	–	–
C=CC(=O)N(c1ccc(C2CCOC2)cc1)C(C(=O)NC(C)(C)C)c1cccnc1 (stereo not given)	–	1.01	1.01	-11.9	4.28	0	–
CC(C)NC1CCN(c2ccc(S(N)(=O)=O)cc2)CC1	0.505	1	0.98	-1.27	-1.56	0.29	–
CCOc1ccccc1/C=C1/C(=O)NC(=O)c2ccccc21	39.6	0.97	0.68	-36.4	4.82	–	–
O=C(Cc1cccc(Cl)c1)Nc1cnccc1O	0	1	1	0.0135	-2.06	–	–
Cc1cc2c(cc1C)[C@H](C(=O)Nc1cncnc1-n1cccn1)CO2 (stereo in doubt)	0	0.82	0.76	-1.2	-9.4	–	–
C=CC(=O)N(c1ccc(C2(C)CC2)cc1)C(C(=O)Nc1ccc(OC)cc1)c1cccnc1 (stereo not given)	0	0.96	0.62	–	12.6	0	–
O=C(c1cc(=O)[nH]c2ccccc12)N1CCN(c2ccc(F)cc2)CC1	52.3	0.99	0.99	57	78.5	–	4.28
Cc1noc(C)c1COc1ccccc1C(=O)NC(C)c1nnc2ncccn12 (stereo not given)	18.5	0.99	0.94	2.22	8.28	0	–
Cc1ccncc1Cn1ccccc1=O	6.5	1	1	3.62	7.02	–	–
O=C(Cn1cccn1)N1CCN(S(=O)(=O)c2cccc(F)c2)CC1	–	1	1	-11.9	1	0	–

SMILES	inhibition ([1]; 50.0 µM) [%]	relative solubility at 20 uM	relative solubility at 100 uM	inhibition ([2]; 20.0 µM) [%]	inhibition ([2]; 50.0 µM) [%]	inhibition ([1]; 20.0 µM) [%]	pIC50 [1]
Nc1nnnn1-c1cccc(C(=O)Nc2c(-c3cccnc3)nc3ccccn23)c1	18.3	0.98	0.79	-2.5	2.69	11	–
O=C(NCc1coc2ccccc12)C1CCc2nnc(-c3ccc(O)cc3)n2C1 (stereo not given)	55.3	0.89	0.94	-9.94	2.5	–	–
Cc1ccc(S(=O)(=O)NC2CCN(C(=O)CCl)CC2)cc1	–	1	1.01	25.1	59.3	54.9	4.73
O=C(Cc1ccccc1OC1CCOC1)OCc1cnn[nH]1 (stereo not given)	0	1	1	–	20.7	0	–
CCCN(CC1COc2ccccc2O1)C(=O)c1cc(=O)[nH]c2ccc(Cl)cc12 (stereo not given)	0	0.98	0.89	-8.21	-15.6	–	–
Cc1cc(NC(=O)Cc2cncnc2)cc(OC2CC(=O)N2)c1 (stereo not given)	45	1.01	1	49.3	72.7	–	–
Cc1ccncc1-c1nc(-c2cccc(Cl)c2)no1	22.9	1	0.99	3.58	5.25	–	–
COCc1cc(Cl)cc(CN2CCN(C(=O)CCl)CC2)c1	118	0.98	0.99	97.6	99.9	–	5.88
NC(=O)CCN(C(=O)CCl)C1CCS(=O)(=O)C1 (stereo not given)	34.1	1	1	–	18.6	16.3	–
CC(C(=O)Nc1cccc(NC2CCCC2)c1)c1cnccn1 (stereo not given)	-2.15	1	0.98	-2.77	0.913	0	–
O=C(O)[C@@H](Cc1nc(=O)cc[nH]1)NCc1ccc(Cl)s1 (stereo in doubt)	2.07	1.01	1	6.7	4.85	–	–
CCC(=O)Nc1cccc(OC2CC(=O)N2)c1 (stereo not given)	0	1.01	1.01	-4.99	-6.23	–	–
O=C(NCCNc1ccncc1)c1cccc(S(=O)(=O)Nc2ccccc2-c2ccccc2)c1	-3.32	0.95	0.94	-20.4	-32.8	–	–
C=CC(=O)N(c1ccc(C(C)(C)C)cc1)C(C(=O)NC(C)(C)C)c1cccnc1 (stereo not given)	16.1	0.96	0.89	12.7	27.2	0	–
O=C(c1cc(=O)[nH]c2ccccc12)N1CCN(Cc2ccccc2)CC1	82.4	0.99	1	74.5	87.8	–	4.73
N#Cc1cncc(NC(=O)Nc2cccnc2)c1	17.4	1	1	7.07	17.1	–	–
CC(=O)N[C@@H](C)C(=O)Nc1cnccc1C (stereo in doubt)	-0.127	1	1	-12.3	-7.91	–	–
C=CC(=O)N(c1ccc(C(C)OC)cc1)C(C(=O)Nc1ccccc1Br)c1cccnc1 (stereo not given)	–	0.89	0.84	3.04	9.73	0	–
CCCSCC(=O)C(C#N)C(=O)Nc1ccccc1F (stereo not given)	2.12	1	1	–	-9.47	0.68	–
Cn1nncc1CC(=O)NC(c1ccccc1)c1nc2ccccc2n1C (stereo not given)	0	1	1	–	54.1	0	–
O=C(Nc1cccc(C(=O)N2CCSCC2)c1)C(F)Cl (stereo not given)	0	1	1	-13.8	-16.9	0	–
Cc1ccncc1NC(=O)CC(O)C1CC1 (stereo not given)	2.72	1	1.01	-48	1.39	–	–
COCC1CCN(c2ccc(S(N)(=O)=O)cc2)CC1	44	0.99	1	–	-23.1	22.3	–
O=C(CCl)N1CCC(c2nc(-c3cccnc3)nc3ccccc23)CC1	100	0.92	0.8	56.8	71.5	–	4.83
CN1CCC(C(=O)NC2CCCCC2NC(=O)c2ccccc2)CC1 (stereo not given)	0	0.98	0.99	–	-15.4	0	–
